How the values were obtained:
[1] = system: HeLa cells; assay: Fas induced killing of HeLa cells treated with pharmacological agents, count of viable trypan blue excluding cells; type: cell-based, human; settings: for effect on Fas induced PCD of HeLa cells, in words (viable cell count): anti-Fas antibody treated HeLa cells, NAC: 50 ng/ml anti-Fas, 5 days, FIG. 6, 8E, 8G, 8H
Method: HeLa cells, 1.6×10^5 cells/well were plated in 6 wells plates. 20-24 hours later cells were treated with various concentrations of sulfinpyrazone (Sigma/Aldrich) in 1% DMSO for 15 minutes prior to the addition of 200 ng/ml anti-Fas antibody (clone CH-11, Kamiya Biomedical Company). The number of viable, trypan blue (Gibco/BRL) excluding cells that remained attached to the plate following rinsing with PBS was counted 17 hours post treatment. […]

[2] = system: HeLa cells; assay: Apoptotic index (DAPI staining) of HeLa cells treated with anti-Fas antibody; type: cell-based, human
Method: To generate HeLa cells that over-express Nrf2, the human Nrf2 cDNA (Moi et al. 1994) was cloned into the retrovirus expression vector pBABEpuro (Morgenstern and Land 1990) by standard methods. The plasmid was transiently transfected into […] and virus was collected at 36, 48, 60 and 72 hours post transfection. At each time point, freshly collected virus stock was filtered through a […], mixed with […] polybrene (Sigma/Aldrich) and applied to HeLa cells. 24 hours after the last addition of the virus, the cells were subjected to selection in […] Puromycin (Sigma/Aldrich). The pool of Puromycin resistant colonies was expanded. […] Apoptotic index was calculated as the ratio of number of dead cells (containing condensed and/or fragmented chromosomes) to the total number of cells. Average apoptotic index calculated from ten fields from duplicate wells is presented.
For bioassays, HeLa cells, at 8.3×10^4 cells/well were plated in 12 wells plates. […] 20 hours later the apoptotic index of treated cells was determined as described for the Nrf2 bioassays.
HeLa cells, 1.6×10^5 cells/well were plated in 6 wells plates. […] The number of viable, trypan blue (Gibco/BRL) excluding cells that remained attached to the plate following rinsing with PBS was counted 17 hours post treatment. Alternatively, the apoptotic index of treated cells was determined as described for the Nrf2 bioassays.

[3] = molecular target: Fas/CD95/Apo-1 on HeLa cells (human) (UniProt P25445); assay: cell-based or functional assay
UniProt P25445, sequence (P25445 26-335): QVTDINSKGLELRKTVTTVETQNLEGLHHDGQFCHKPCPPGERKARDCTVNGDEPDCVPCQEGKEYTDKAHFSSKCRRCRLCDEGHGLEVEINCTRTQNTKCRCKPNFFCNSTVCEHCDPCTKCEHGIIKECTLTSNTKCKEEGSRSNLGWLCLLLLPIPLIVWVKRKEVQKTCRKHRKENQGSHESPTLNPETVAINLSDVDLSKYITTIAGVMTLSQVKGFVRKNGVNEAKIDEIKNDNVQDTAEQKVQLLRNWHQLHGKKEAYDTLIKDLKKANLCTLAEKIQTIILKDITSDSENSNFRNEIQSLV

O=C1C(CC[S+]([O-])c2ccccc2)C(=O)N(c2ccccc2)N1c1ccccc1 (stereo not shown) [sulfinpyrazone]
sensitization to Fas induced killing compared to treatment with vehicle alone ([1]; 2 mM sulfinpyrazone, 200 ng/ml anti-Fas antibody, counted 17 hours post treatment, FIG. 8G): approximately 4 fold

CC(=O)N[C@@H](CS)C(=O)O [NAC, N-acetyl Cysteine]
effect on Fas induced PCD of HeLa cells, in words (viable cell count) [1]: strongly protects | effect on Fas induced PCD of HeLa cells, in words (viable cell count) ([1]; listed as N-acetyl cysteine): protects

NCCNS(=O)(=O)c1ccc(Cl)c2ccncc12 [CKI-7, N-(2-aminoethyl)-5-chloroisoquinoline-8-sulfonamide]
fold more sensitive to FAS induced PCD than the untreated cells ([1]; CKI-7 in 1% DMSO added an hour before 200 ng/ml anti-FAS antibody, counted 17 hours post treatment, FIG. 6): 3.9 fold | effect on Fas induced PCD of HeLa cells, in words (viable cell count) [1]: sensitizes

O=c1oc2ccccc2c(O)c1Cc1c(O)c2ccccc2oc1=O [Dicumarol]
killing (apoptotic index) in cells treated with anti-Fas antibody and Dicumarol ([2]; 100 uM Dicumarol, 200 ng/ml anti-Fas antibody, vehicle (0 uM) approximately 25%, FIG. 8F): approximately 100% | effect on Fas induced PCD of HeLa cells, in words (apoptotic index) ([2]; anti-Fas antibody treated HeLa cells, FIG. 8C, 8D, 8F legends): sensitizes | fold more sensitive to Fas induced killing compared to cells treated with vehicle, measured by the number of viable cells ([1]; 100 uM Dicumarol, 200 ng/ml anti-Fas antibody, counted 17 hours post treatment, FIG. 8E): 2.8 fold | effect on Fas induced PCD of HeLa cells, in words (viable cell count) [1]: sensitizes

Anti-Fas antibody (clone CH-11, Kamiya Biomedical Company, catalog number MC-060)
apoptotic index (DAPI staining), HeLa cells infected with vector alone (Control-1) [3]: 89% | apoptotic index (DAPI staining), HeLa cells infected with vector alone (Control-2) [3]: 87% | apoptotic index (DAPI staining), HeLa cells with vehicle [3]: 25% | apoptotic index (DAPI staining), HeLa cells with vehicle (0 uM Dicumarol) [3]: 25%

From US20020182694A1, “Novel gene and polypeptide which opposes the Fas pathway” (priority 2001, published 2002)
